# Laboratory results as given in article PMC8000760, “Potential Effect of Pseudevernia furfuracea (L.) Zopf Extract and Metabolite Physodic Acid on Tumour Microenvironment Modulation in MCF-10A Cells” (Biomolecules, 2021).
# Experiments:
# [1] = system: HUVECs; assay: MTS cell viability assay; format: cell-based, human; settings: 48 h
# Procedure: (§1) Briefly, MCF-10A and BJ-5ta were seeded in 96-well culture plates, and after 24 h incubation, treated with various ranges of concentrations of tested compounds (10–100 μg/mL) for 72 h. At the same time, HUVECs were seeded in a gelatine-coated 96-well plate and treated with the same aliquots of indicated compounds in the presence or absence of VEGF (Vascular endothelial growth factor) (25 ng/mL) for 48 h. Cell viability was evaluated by measuring the absorbance at 490 nm using the automated CytationTM 3 Cell Imaging Multi-Mode Reader (Biotek, Winooski, VT, USA). Three independent experiments were performed at different intervals.
# [2] = system: MCF-10A; assay: MTS cell viability assay; format: cell-based, human; settings: 72 h
# Procedure: as §1
# [3] = system: pSmad2/3 in BJ-5ta; assay: Western blot of phospho-Smad2/3 in TGF-β-stimulated fibroblasts; format: cell-based; settings: TGF-β-stimulated BJ-5ta, time-dose manner
# Procedure: (§2) The MCF-10A and BJ-5ta cells were seeded and cultivated for 24 h in a complete medium. One day after seeding, 30 ng/mL of TGF-β was added and cultivated for 7 days (d). TGF-β was added to induce epithelial–mesenchymal transition in tested cell lines. Lichen extract P. furfuracea (L.) Zopf and its metabolite physodic acid were added at time 0 h and then incubated for 24, 48 and 72 h for various analyses, as described in Figure 1.
# (§3) Proteins isolated from MCF-10A and BJ-5ta cell lysates were determined by the Pierce® BCA Protein Assay Kit (Thermo Scientific, Rockford, IL, United States), using bovine serum albumin (BSA) as the standard, and measured by an automated Cytation™ 3 Cell Imaging Multi-Mode Reader (Biotek) at a wavelength of 570 nm. Proteins were separated on SDS-PAA gel (12%) at 100 V for 2 h and then transferred to a polyvinylidene difluoride (PVDF) membrane using the iBlot dry blotting system (Thermo Scientific, Rockford, IL, United States). […] After incubation, the membrane was again washed in TBS-Tween (3 × 5 min), and the expression of the protein was detected using a chemiluminescent ECL substrate (Thermo Fisher Scientific) and MF-ChemiBIS 2.0 Imaging System (DNR BIO-Imaging Systems, Jerusalem, Israel). The detected band was then analysed densitometrically using the Image Studio Lite software (LI-COR Biosciences, Lincoln, NE, USA). […]
# [4] = system: N-cadherin, fibronectin, α-SMA, Slug in BJ-5ta; assay: Western blot of mesenchymal markers in TGF-β-stimulated fibroblasts; format: cell-based; settings: TGF-β-stimulated BJ-5ta, 48 and 72 h, time- and dose-dependent manner
# Procedure: as §2, §3
# [5] = system: E-cadherin in BJ-5ta; assay: Western blot of E-cadherin in TGF-β-stimulated fibroblasts; format: cell-based; settings: TGF-β-stimulated BJ-5ta, 48 and 72 h
# Procedure: as §2, §3
# [6] = system: BJ-5ta; assay: MTS cell viability assay; format: cell-based; settings: 72 h
# Procedure: as §1
# [7] = system: Slug in BJ-5ta; assay: Western blot of Slug in TGF-β-stimulated fibroblasts; format: cell-based; settings: 72 h treatment
# Procedure: as §2, §3
# [8] = system: N-cadherin in TGF-β-stimulated MCF-10A cells; assay: N-cadherin expression, flow cytometry; format: cell-based, human; settings: IC10, 24, 48, 72 h, compared to TGF-β alone
# Procedure: as §2
# The MCF-10A cells (1 × 10^4/well) were seeded in Petri dishes and stimulated with […] TGF-β for 7 days. […] After detaching, using Trypsin/EDTA, cells were harvested and pelleted by centrifugation at 1200 rpm for 5 min. Pellet was re-suspended in PBS and divided for a particular analysis. Cells were stained prior to analyses with E-Cadherin Mouse mAb (Alexa Fluor 488 conjugate) or N-cadherin Rabbit mAb (Alexa Fluor 647 conjugate) (Cell Signalling) for 15 min at RT in the dark. For the cell cycle analyses, cells were re-suspended in staining solution (final concentration 0.1% Triton X-100, 0.5 mg/mL ribonuclease A and 0.025 mg/mL propidium iodide (PI)), and incubated in the dark at RT for 30 min. All samples were analysed using a FACS Calibur flow cytometer (Becton Dickinson, San Jose, CA, USA). The IgG isotype control checking was performed for every used antibody.
structure (smiles),measurement,setting,value
"CCCCCC(=O)Cc1cc(O)cc2c1C(=O)Oc1cc(O)c(C(=O)O)c(CCCCC)c1O2 [Phy, physodic acid]",VEGF-induced cell growth,[1]; HUVECs with VEGF 25 ng/mL,significantly inhibited
same,cell growth of non-stimulated HUVECs,[1]; HUVECs without VEGF,no significant differences
same,IC10,[1]; HUVECs,60.62 ± 3.30 µM
same,IC50,"[1]; Homo sapiens, HUVEC, HUVECs",92.8 ± 3.62 µM
same,IC10,[2],59.25 ± 1.36 µM
same,IC50,[2]; Homo sapiens,79.9 ± 0.93 µM
same,phosphorylation levels of Smad2 and Smad3 (pSmad2/3),[3],decreased
same,mesenchymal markers expression,[4],significantly decrease
same,expression of epithelial marker E-cadherin,[5],did not significantly change
same,IC10,[6],46.35 ± 0.39 µM
same,IC50,[6],83.2 ± 1.02 µM
same,Slug protein,[7],downregulation
same,"N-cadherin expression, flow cytometry",[8],significantly reduced
